Assays:
[1] = system: olfactory mucosa; assay: Electrical signal in the olfactory bulb on spraying the compound toward the olfactory mucosa, measured with implanted micro electrodes; type: in vivo; conditions: rat, sprayed with air for 5 minutes; FIG. 5 (a) vs (b)
From the text: A two-week-old rat was used as a test animal. The measuring electrode portion 10 shown in FIG. 4 was implanted into the rat by a surgical operation. In the measuring electrode portion 10, the length of the micro electrode 16a was 100 μm, and the interval between adjacent micro electrodes 16a in each electrode column 17 was 500 μm. Platinum was used as a conductive material for the needle-shaped conductive lead 16. Polyimide was used as the insulative film. […] In order to attach the measuring electrode portion 10 to the rat, Nembutal (barbiturate) was injected into the abdominal cavity of the rat in a quantity equal to […], so as to anesthetize the rat, and the anesthetized rat was fixed in the prone position. […] The response induced in the olfactory bulb of the rat was recorded in the form of an electrical signal from each micro electrode 16a of the measuring electrode portion 10. […] At the same time, the blood pressure and the heart rate of the rat were measured when cineole was sprayed on the rat. […] After the olfactory bulb of the rat had stabilized, cineole was sprayed into the test animal fixing device 32 together with air at an oxygen concentration 5% higher than normal air, and a response of the olfactory bulb of the rat obtained at that time was recorded in the form of an electrical signal from each micro electrode 16a of the measuring electrode portion 10.

[2] = system: rat; assay: Blood pressure and heart rate of the rat while the compound is sprayed; type: in vivo
From the text: The test animal fixing device 32 has a means for measuring physiological responses induced in an organism, such as the blood pressure, the heart rate, etc., of the test animal fixed therein. Measurement results obtained by the measuring means are supplied to the processing apparatus 36. Further, measurement results of the blood pressure, the heart rate, and the like, of the rat fixed in the test animal fixing device 32, which are obtained when the air containing the olfactory mucosa stimulating compound is sprayed from the atomizing nozzle 33, are supplied to the processing apparatus 36. The processing apparatus 36 determines the efficacy of the olfactory mucosa stimulating compound sprayed on the rat, based on the analyzed electrical signal pattern in the olfactory bulb and the measurement results of the blood pressure, the heart rate, and the like, of the rat. For example, if a decrease in the blood pressure of the rat is detected as a result of a stimulation of the olfactory mucosa by an olfactory mucosa stimulating compound, it is determined that the olfactory mucosa stimulating compound suppresses brain cells so as to induce a physiological response that lowers the blood pressure. Accordingly, the olfactory mucosa stimulating compound is identified as a compound effective in lowering the blood pressure. In this case, the electrical signal pattern obtained by the measuring electrode portion 10 is stored as data in the processing apparatus 36. After such an implantation operation of the measuring electrode portion 10, the rat was reared for three weeks under an environment which was cleaned with activated carbon so as to remove substances that produce aromas. Then, three weeks after the surgical operation, the rat was fixed in the test animal fixing device 32 of the screening apparatus 1 shown in FIG. 1. The terminal line 38, which extended from the body of the rat, was connected to the signal amplitude stimulating apparatus 34 outside the test animal fixing device 32. […] The response induced in the olfactory bulb of the rat was recorded in the form of an electrical signal from each micro electrode 16a of the measuring electrode portion 10. […] At the same time, the blood pressure and the heart rate of the rat were measured when cineole was sprayed on the rat. […] After the olfactory bulb of the rat had stabilized, cineole was sprayed into the test animal fixing device 32 together with air at an oxygen concentration 5% higher than normal air, and a response of the olfactory bulb of the rat obtained at that time was recorded in the form of an electrical signal from each micro electrode 16a of the measuring electrode portion 10.

[3] = cineole sprayed with air, FIG. 6
[4] = result stated for normal oxygen concentration

SMILES: CC12CCC(CC1)C(C)(C)O2 [cineole]
- stimulation of the olfactory mucosa (electrical signals of the olfactory bulb, 16 micro electrodes) [1]: stimulated the olfactory mucosa
- blood pressure [2, 3]: increases in the blood pressure
- heart rate [2, 3]: increases
- blood pressure, air at normal oxygen concentration versus air at oxygen concentration 5% higher than normal air [2, 4]: increased more greatly
- heart rate, air at normal oxygen concentration versus air at oxygen concentration 5% higher than normal air [2, 4]: increased more greatly
